# From paper PMC8276018, “The Prostacyclin Analogue, Treprostinil, Used in the Treatment of Pulmonary Arterial Hypertension, is a Potent Antagonist of TREK-1 and TREK-2 Potassium Channels” (Frontiers in Pharmacology, 2021)
# Substitutions are numbered along the chain they refer to.
# What was measured:
# Format in all cases: cell-based
# TREK-2 [1] = target: T1, TREK-2 (Homo sapiens, UniProt P57789); assay: whole-cell patch-clamp, current activation at […]; conditions: read-out: % current enhancement at 1 μM
# T1 construct: gene KCNK10; NP_612190.1, wild type, expressed in tsA201 cells
# T1 sequence (P57789 1-538): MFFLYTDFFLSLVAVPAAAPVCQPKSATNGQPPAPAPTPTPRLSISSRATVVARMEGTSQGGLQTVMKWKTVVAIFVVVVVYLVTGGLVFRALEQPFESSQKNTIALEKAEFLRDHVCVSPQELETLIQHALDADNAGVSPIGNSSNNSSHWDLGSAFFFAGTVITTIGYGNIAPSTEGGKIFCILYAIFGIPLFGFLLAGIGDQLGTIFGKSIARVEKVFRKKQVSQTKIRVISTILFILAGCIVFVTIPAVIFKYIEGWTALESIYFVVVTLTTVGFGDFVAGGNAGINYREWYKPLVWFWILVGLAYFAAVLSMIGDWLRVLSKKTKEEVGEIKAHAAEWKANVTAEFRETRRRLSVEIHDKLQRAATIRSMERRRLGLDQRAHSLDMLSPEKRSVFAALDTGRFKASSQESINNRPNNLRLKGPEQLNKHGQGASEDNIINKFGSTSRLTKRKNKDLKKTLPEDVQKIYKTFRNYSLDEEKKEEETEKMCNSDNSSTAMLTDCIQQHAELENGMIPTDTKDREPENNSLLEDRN
# TREK-1 [2] = target: T2, TREK-1 (Homo sapiens, UniProt O95069); assay: whole-cell patch-clamp, current activation at […]; conditions: read-out: % current enhancement at 1 μM
# T2 construct: gene KCNK2; NP_055032.1, wild type, expressed in tsA201 cells
# T2 sequence (O95069 1-426): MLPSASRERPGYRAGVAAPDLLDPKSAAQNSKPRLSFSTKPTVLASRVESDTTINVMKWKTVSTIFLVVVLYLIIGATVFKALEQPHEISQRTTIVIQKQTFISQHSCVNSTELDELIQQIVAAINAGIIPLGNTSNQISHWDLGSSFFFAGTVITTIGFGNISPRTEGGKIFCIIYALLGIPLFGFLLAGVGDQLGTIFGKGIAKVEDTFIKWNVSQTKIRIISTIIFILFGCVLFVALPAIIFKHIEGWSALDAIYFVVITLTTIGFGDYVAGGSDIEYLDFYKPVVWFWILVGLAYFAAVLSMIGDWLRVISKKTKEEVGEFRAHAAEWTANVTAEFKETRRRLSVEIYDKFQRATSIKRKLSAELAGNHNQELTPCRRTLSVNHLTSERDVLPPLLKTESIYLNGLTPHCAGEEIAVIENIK
# TREK-1 [3] = target: T3, TREK-1 (Homo sapiens, UniProt O95069, Y299A); assay: whole-cell patch-clamp, […]
# T3 construct: gene KCNK2; homodimeric mutant channel in tsA201 cells
# T3 sequence (O95069 1-411 isoform O95069-2 Y284A): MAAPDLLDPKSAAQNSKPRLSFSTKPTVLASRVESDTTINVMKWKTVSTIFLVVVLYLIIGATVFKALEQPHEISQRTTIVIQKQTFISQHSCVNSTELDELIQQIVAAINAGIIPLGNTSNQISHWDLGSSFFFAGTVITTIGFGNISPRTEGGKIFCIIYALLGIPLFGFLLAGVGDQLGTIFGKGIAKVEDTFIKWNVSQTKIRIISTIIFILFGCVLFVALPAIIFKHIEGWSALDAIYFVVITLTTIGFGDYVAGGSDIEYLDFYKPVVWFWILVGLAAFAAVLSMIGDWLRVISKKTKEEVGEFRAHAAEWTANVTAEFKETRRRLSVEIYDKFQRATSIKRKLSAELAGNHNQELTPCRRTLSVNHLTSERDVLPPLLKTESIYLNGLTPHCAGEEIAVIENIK
# TREK-1 [4] = target: T4, TREK-1 (Homo sapiens, UniProt O95069, Q91A); assay: whole-cell patch-clamp, […]
# T4 construct: gene KCNK2; homodimeric mutant channel in tsA201 cells
# T4 sequence (O95069 1-411 isoform O95069-2 Q76A): T3 sequence (O95069 1-411 isoform O95069-2 Y284A) with Q76A, A284Y
# TREK-1 [5] = target: T5, TREK-1 (Homo sapiens, UniProt O95069, L117A); assay: whole-cell patch-clamp, […]
# T5 construct: gene KCNK2; homodimeric mutant channel in tsA201 cells
# T5 sequence (O95069 16-426 L117A): T3 sequence (O95069 1-411 isoform O95069-2 Y284A) with M1V, L102A, A284Y
# TREK-1 [6] = target: T2, TREK-1; assay: whole-cell patch-clamp, concentration-response
# TREK-1 [7] = target: T6, TREK-1 (Homo sapiens, UniProt O95069, I95A); assay: whole-cell patch-clamp, […]
# T6 construct: gene KCNK2; homodimeric mutant channel in tsA201 cells
# T6 sequence (O95069 1-411 isoform O95069-2 I80A): T3 sequence (O95069 1-411 isoform O95069-2 Y284A) with I80A, A284Y
# TREK-2 [8] = target: T1, TREK-2; assay: whole-cell patch-clamp, concentration-response
# TREK-2 [9] = target: T7, TREK-2 (Homo sapiens, UniProt P57789, L315A); assay: whole-cell patch-clamp, […]
# T7 construct: gene KCNK10; homodimeric mutant channel in tsA201 cells
# T7 sequence (P57789 1-538 L315A): T1 sequence (P57789 1-538) with L315A
# TREK-1 [10] = target: T8, TREK-1 (Homo sapiens, UniProt O95069, L304A); assay: whole-cell patch-clamp, […]
# T8 construct: gene KCNK2; homodimeric mutant channel in tsA201 cells
# T8 sequence (O95069 1-411 isoform O95069-2 L289A): T3 sequence (O95069 1-411 isoform O95069-2 Y284A) with A284Y, L289A
activation at 1 µM (TREK-2 [1]),activation at 1 µM (TREK-1 [2]),SMILES,inhibition at 1 µM (TREK-1 [3]),inhibition at 1 µM (TREK-1 [4]),inhibition at 1 µM (TREK-1 [5]),IC50 (TREK-1 [6]),inhibition at 1 µM (TREK-1 [7]),IC50 (TREK-2 [8]),inhibition at 1 µM (TREK-2 [9]),inhibition at 1 µM (TREK-1 [10])
192%,144%,c1ccc(-c2nn[nH]n2)c(Nc2cccc3c2CCCC3)c1 [BL-1249],–,–,–,–,–,–,–,–
–,–,CCCCC[C@H](O)CC[C@@H]1[C@H]2Cc3cccc(OCC(=O)O)c3C[C@H]2C[C@H]1O [treprostinil],58%,89%,88%,0.03 µM,78.2%,0.04 µM,74%,72%
